Data on one molecule can be found in PMC6934184, “Selective DNA-PKcs inhibition extends the therapeutic index of localized radiotherapy and chemotherapy” (The Journal of Clinical Investigation, 2019).

The assay has as its target T1, PIK3CD/PIK3R1 (p110δ/p85α) (Homo sapiens, UniProt O00329).
T1 construct: purchased Thermo Fisher Scientific (Life Technologies) SelectScreen
Put plainly: SelectScreen Adapta. The settings on record: ATP Km app. It counts as biochemical. The procedure:
The in vitro kinase selectivity of NU5455 was determined using the SelectScreen Broad Assay Panel (Thermo Fisher Scientific) involving activity and binding assays (Supplemental Table 1). […] Class IA PI3Ks were measured using the p85α subunit.
Kinase [ATP] % Assay Kinase [ATP] % Assay Kinase [ATP] % Assay Kinase [ATP] % Assay […]
SGK (SGK1) Km app 8.5 Z MAP4K2 (GCK) Km app 2.7 Z TLK2 n/a -0.3 L STK38 (NDR) n/a -5.9 L
MERTK (cMER) Km app 8.3 Z CDK2/cyclin A Km app 2.7 Z TGFBR1 (ALK5) n/a -0.4 L MATK (HYL) Km app -6.3 Z
FYN Km app 8.3 Z EPHA1 Km app 2.7 Z CLK3 Km app -0.5 Z ABL1 E255K Km app -6.6 Z
TEC n/a 8.1 L CDK2/cyclin E1 n/a 2.7 L MAP3K14 (NIK) n/a -0.5 L STK17A (DRAK1) n/a -6.6 L
KIT V654A n/a 8.1 L TESK2 n/a 2.7 L AKT3 (PKB gamma) Km app -0.5 Z JAK2 JH1 JH2 Km app -6.7 Z
ROS1 Km app 8.0 Z SPHK1 Km app 2.7 A MAP3K9 (MLK1) Km app -0.5 Z PRKACB (PRKAC beta) n/a -6.8 L
FGFR3 K650E Km app 7.9 Z AMPK A2/B1/G1 Km app 2.6 Z IKBKB (IKK beta) Km app -0.6 Z PDGFRA (PDGFR alpha) Km app -6.8 Z
RAF1 (cRAF) Y340D Y341D 100 7.9 Z DYRK3 Km app 2.6 Z CAMK2A (CaMKII alpha) Km app -0.6 Z NEK9 Km app -7.2 Z
PI4KA (PI4K alpha) 10 7.8 A CSNK1D (CK1 delta) Km app 2.6 Z PRKCB1 (PKC beta I) Km app -0.7 Z PDK1 Km app -7.3 Z
HIPK2 Km app 7.8 Z ACVR2A n/a 2.5 L TTK n/a -0.7 L RPS6KB1 (p70S6K) Km app -7.8 Z
CSK Km app 7.6 Z DDR2 T654M n/a 2.5 L ZAK n/a -0.7 L STK38L (NDR2) n/a -8.4 L
PRKCG (PKC gamma) Km app 7.6 Z JAK2 Km app 2.5 Z IKBKE (IKK epsilon) Km app -0.7 Z ABL1 G250E Km app -8.5 Z
SRMS (Srm) Km app 7.5 Z HIPK3 (YAK1) Km app 2.5 Z CAMK2G (CaMKII gamma) n/a -0.8 L PRKD1 (PKC mu) Km app -8.5 Z
YES1 Km app 7.4 Z AMPK (A1/B1/G2) n/a 2.4 L TLK1 n/a -0.8 L CDK5/p35 Km app -8.6 Z
RPS6KA5 (MSK1) Km app 7.4 Z MYO3B (MYO3 beta) n/a 2.3 L MAPK12 (p38 gamma) Km app -0.8 Z PDGFRA T674I Km app -8.9 Z
TNIK n/a 7.3 L PASK Km app 2.3 Z PRKCI (PKC iota) Km app -0.8 Z BLK Km app -8.9 Z
FER Km app 7.1 Z ACVRL1 (ALK1) n/a 2.3 L PKN2 (PRK2) n/a -1.0 L PRKD2 (PKD2) Km app -9.1 Z
CDK16 (PCTK1)/cyclin Y n/a 7.0 L EGFR (ErbB1) L861Q Km app 2.2 Z PIM1 Km app -1.0 Z CSNK1G2 (CK1 gamma 2) Km app -9.3 Z
MST4 Km app 6.9 Z RPS6KA3 (RSK2) Km app 2.1 Z CDK5/p25 Km app -1.1 Z ROCK1 Km app -9.5 Z
FLT1 (VEGFR1) Km app 6.5 Z STK23 (MSSK1) Km app 2.0 Z SRPK1 Km app -1.1 Z PRKCB2 (PKC beta II) Km app -9.6 Z
DYRK1A Km app 6.4 Z ALK R1275Q n/a 2.0 L BRSK1 (SAD1) Km app -1.1 Z CSNK1G1 (CK1 gamma 1) Km app -9.9 Z
PRKCD (PKC delta) Km app 6.2 Z TBK1 Km app 2.0 Z MAP3K3 (MEKK3) n/a -1.1 L ABL2 (Arg) Km app -10.3 Z
EGFR (ErbB1) Km app 6.0 Z ACVR1B (ALK4) Km app 2.0 Z AMPK A1/B1/G1 Km app -1.2 Z STK3 (MST2) Km app -10.3 Z
CDC7/DBF4 n/a 6.0 L CDK3/cyclin E1 n/a 1.9 L WNK3 n/a -1.2 L CAMK4 (CaMKIV) Km app -10.4 Z
JAK3 Km app 6.0 Z KDR (VEGFR2) Km app 1.8 Z LATS1 n/a -1.3 L MKNK1 (MNK1) Km app -10.7 Z
MAPK13 (p38 delta) Km app 5.8 Z ULK1 n/a 1.8 L DMPK n/a -1.5 L FLT3 ITD n/a -11.6 L
FRAP1 (mTOR) Km app 5.7 Z AURKB (Aurora B) Km app 1.7 Z CDK2/cyclin A1 n/a -1.6 L CHEK2 (CHK2) Km app -11.7 Z
KIT Y823D n/a 5.6 L LRRK2 Km app 1.7 A LIMK1 n/a -1.7 L LTK (TYK1) Km app -13.1 Z
ITK Km app 5.5 Z MAP2K3 (MEK3) n/a 1.6 L DYRK1B Km app -1.8 Z JAK2 JH1 JH2 V617F Km app -13.8 Z
KIT Km app 5.3 Z DAPK1 Km app 1.6 A DDR1 n/a -1.8 L EPHA8 Km app -13.8 Z
CDK7/cyclin H/MNAT1 Km app 5.3 A EPHA6 n/a 1.6 L BTK Km app -2.0 Z EGFR (ErbB1) T790M L858R Km app -14.1 Z
RET Km app 5.2 Z MAP4K1 (HPK1) n/a 1.6 L ADRBK1 (GRK2) Km app -2.0 Z MET M1250T Km app -14.5 Z […]

T1 sequence (O00329 whole entry): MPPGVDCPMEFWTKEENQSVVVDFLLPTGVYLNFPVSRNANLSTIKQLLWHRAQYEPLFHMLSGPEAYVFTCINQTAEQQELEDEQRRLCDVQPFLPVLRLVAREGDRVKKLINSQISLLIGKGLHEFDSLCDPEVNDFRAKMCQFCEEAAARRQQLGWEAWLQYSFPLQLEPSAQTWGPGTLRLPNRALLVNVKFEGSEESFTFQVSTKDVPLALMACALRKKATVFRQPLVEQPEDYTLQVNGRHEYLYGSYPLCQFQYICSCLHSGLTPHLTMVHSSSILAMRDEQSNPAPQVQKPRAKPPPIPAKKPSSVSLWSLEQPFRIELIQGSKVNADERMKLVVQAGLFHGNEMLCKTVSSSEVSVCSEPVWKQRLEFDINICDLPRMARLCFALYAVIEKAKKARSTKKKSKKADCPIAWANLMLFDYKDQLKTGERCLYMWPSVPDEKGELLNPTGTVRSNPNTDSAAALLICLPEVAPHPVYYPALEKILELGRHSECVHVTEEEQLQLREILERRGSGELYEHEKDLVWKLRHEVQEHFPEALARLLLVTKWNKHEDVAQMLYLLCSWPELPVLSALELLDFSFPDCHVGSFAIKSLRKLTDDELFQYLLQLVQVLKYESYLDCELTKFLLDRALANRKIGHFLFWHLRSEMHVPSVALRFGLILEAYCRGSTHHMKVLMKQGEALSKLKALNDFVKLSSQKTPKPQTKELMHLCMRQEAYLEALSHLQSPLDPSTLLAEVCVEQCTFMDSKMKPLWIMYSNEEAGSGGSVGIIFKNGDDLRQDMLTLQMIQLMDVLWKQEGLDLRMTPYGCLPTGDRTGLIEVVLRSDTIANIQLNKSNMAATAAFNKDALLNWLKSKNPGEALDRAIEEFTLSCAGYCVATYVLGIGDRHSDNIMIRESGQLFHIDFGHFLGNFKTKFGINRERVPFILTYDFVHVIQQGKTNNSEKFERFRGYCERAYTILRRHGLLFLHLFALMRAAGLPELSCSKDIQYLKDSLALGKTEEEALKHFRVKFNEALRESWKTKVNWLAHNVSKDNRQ
T1 sequence (P27986 whole entry partner): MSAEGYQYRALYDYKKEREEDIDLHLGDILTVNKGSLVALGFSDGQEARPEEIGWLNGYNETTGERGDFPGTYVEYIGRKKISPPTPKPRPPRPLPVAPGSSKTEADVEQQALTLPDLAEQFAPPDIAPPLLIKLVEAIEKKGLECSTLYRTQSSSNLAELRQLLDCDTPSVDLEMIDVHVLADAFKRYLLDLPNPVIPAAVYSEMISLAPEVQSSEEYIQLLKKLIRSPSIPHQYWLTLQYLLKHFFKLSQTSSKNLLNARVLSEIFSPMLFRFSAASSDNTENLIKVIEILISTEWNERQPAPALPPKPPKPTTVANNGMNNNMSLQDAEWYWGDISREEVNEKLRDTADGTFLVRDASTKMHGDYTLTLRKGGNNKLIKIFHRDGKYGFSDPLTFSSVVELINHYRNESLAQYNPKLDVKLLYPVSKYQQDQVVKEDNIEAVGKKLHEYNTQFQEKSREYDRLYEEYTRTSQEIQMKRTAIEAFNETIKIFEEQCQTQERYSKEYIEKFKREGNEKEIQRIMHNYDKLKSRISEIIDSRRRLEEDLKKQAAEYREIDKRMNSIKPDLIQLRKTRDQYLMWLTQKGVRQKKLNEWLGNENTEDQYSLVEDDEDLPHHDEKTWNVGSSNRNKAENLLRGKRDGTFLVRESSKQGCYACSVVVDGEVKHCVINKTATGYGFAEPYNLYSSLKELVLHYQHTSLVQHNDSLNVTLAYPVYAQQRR

With `CN(C(=O)CN1CCOCC1)c1ccc2sc3c(-c4cccc5c(=O)cc(N6CC7CCC(C6)O7)oc45)cccc3c2c1` [NU5455], the inhibition at 1 µM is 57.5%. The “% inhibition” value (1 µM) was found to be 57%.

As a reminder, the % inhibition is the share of the control response that was lost under treatment. The low end stands for little suppression, the high end for strong suppression. Broadly, the inhibition is how much of the control response was suppressed. Lower therefore signals a weak effect.
